#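 Grown in 96-well plates, cells were treated for 48 hours with each compound at five concentrations. Insufficient inhibition: endpoint recorded as highest concentration tested. At the GI50, growth is halved.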 Activity calls are given as the source filed them. Cut-off read from the data, not from the text of the source: active = GI50 up to about 1.1 µM and inactive = higher.
# Key:
# Test in all cases: inhibition of tumour cell growth, NCI panel, 48 h
# [1] = tested on: SF-268
# [2] = tested on: NCI-H460
# [3] = tested on: SNB-75
# [4] = tested on: UO-31
# [5] = tested on: COLO 205
# [6] = tested on: LOX IMVI
# [7] = tested on: TK-10
# [8] = tested on: UACC-257
# [9] = tested on: DU-145
# [10] = tested on: A498
# [11] = tested on: CAKI-1
# [12] = tested on: SK-MEL-28
# [13] = tested on: HT-29
# [14] = tested on: PC-3
# [15] = tested on: SK-OV-3
# [16] = tested on: HCT-116
# [17] = tested on: KM12
# [18] = tested on: A549
# [19] = tested on: SNB-19
# [20] = tested on: RPMI-8226
Structure (SMILES),GI50 [1],GI50 [2],GI50 [3],GI50 [4],GI50 [5],GI50 [6],GI50 [7],GI50 [8],GI50 [9],GI50 [10],GI50 [11],GI50 [12],GI50 [13],GI50 [14],GI50 [15],GI50 [16],GI50 [17],GI50 [18],GI50 [19],GI50 [20]
CCC1(N)C(=O)OCc2c1cc1n(c2=O)Cc2cc3ccccc3nc2-1 (stereo not given),5.7 µM (inactive),0.47 µM (active),8.36 µM (inactive),3.42 µM (inactive),30.5 µM (inactive),4.78 µM (inactive),> 74.3 µM (inactive),36.6 µM (inactive),2.65 µM (inactive),4.74 µM (inactive),2.84 µM (inactive),> 93.1 µM (inactive),15 µM (inactive),15.2 µM (inactive),> 100 µM (inactive),4.67 µM (inactive),46.1 µM (inactive),6.58 µM (inactive),7.67 µM (inactive),32.7 µM (inactive)
O=C(NCCCNCCN1C(=O)c2cccc3cc([N+](=O)[O-])cc(c23)C1=O)c1cc(-c2ccccc2)nc2ccccc12,1.39 µM (inactive),1.55 µM (inactive),3.62 µM (inactive),2.52 µM (inactive),1.45 µM (inactive),1.04 µM (active),7.74 µM (inactive),2.21 µM (inactive),5.21 µM (inactive),4.2 µM (inactive),6.07 µM (inactive),1.85 µM (inactive),0.971 µM (active),3.61 µM (inactive),8.91 µM (inactive),1.23 µM (inactive),4.4 µM (inactive),3.31 µM (inactive),3.72 µM (inactive),1.13 µM (inactive)
COC(=O)C(COC(C)=O)NC(=O)/C=C/c1ccc(O)c(OC(C)=O)c1 (stereo not given),> 100 µM (inactive),60.3 µM (inactive),> 100 µM (inactive),49.2 µM (inactive),> 100 µM (inactive),44.6 µM (inactive),77.4 µM (inactive),> 100 µM (inactive),58.6 µM (inactive),> 100 µM (inactive),66.2 µM (inactive),66.2 µM (inactive),78.2 µM (inactive),99.1 µM (inactive),> 100 µM (inactive),39.1 µM (inactive),67.1 µM (inactive),> 100 µM (inactive),> 100 µM (inactive),29.6 µM (inactive)
O=C1C(Cl)=C(N2C(=O)CCCC2=O)C(=O)c2ccccc21,23.9 µM (inactive),14.6 µM (inactive),16.4 µM (inactive),11 µM (inactive),6.37 µM (inactive),20.6 µM (inactive),17.5 µM (inactive),19.1 µM (inactive),16.6 µM (inactive),16.8 µM (inactive),14 µM (inactive),13.9 µM (inactive),15.7 µM (inactive),19.6 µM (inactive),> 100 µM (inactive),16.8 µM (inactive),62.1 µM (inactive),22.1 µM (inactive),> 10 µM (inactive),7.45 µM (inactive)
CN(C)CCCN1c2ccc([N+](=O)[O-])cc2CCc2cc([N+](=O)[O-])ccc21,14.5 µM (inactive),12.6 µM (inactive),15.3 µM (inactive),12 µM (inactive),14.2 µM (inactive),13.2 µM (inactive),12 µM (inactive),13.9 µM (inactive),17.4 µM (inactive),10.3 µM (inactive),14.5 µM (inactive),15 µM (inactive),12.4 µM (inactive),13.6 µM (inactive),14.9 µM (inactive),13.7 µM (inactive),16 µM (inactive),16.4 µM (inactive),15.4 µM (inactive),15.5 µM (inactive)
CC1(c2cccc(Cl)c2)CC(c2cccc(Cl)c2)=C(C#N)C(=C(C#N)C#N)N1 (stereo not given),4.62 µM (inactive),27.6 µM (inactive),19.1 µM (inactive),15.7 µM (inactive),13.2 µM (inactive),19.8 µM (inactive),17.7 µM (inactive),20.1 µM (inactive),15.8 µM (inactive),20.3 µM (inactive),16.5 µM (inactive),20.7 µM (inactive),27.4 µM (inactive),17.6 µM (inactive),18.7 µM (inactive),16.6 µM (inactive),18 µM (inactive),19.5 µM (inactive),17.9 µM (inactive),5.28 µM (inactive)
CC(C)(Cl)C(Br)CC/C(CBr)=C(/Cl)CCl.CC(C)(Cl)C(Br)CC/C(CBr)=C(\Cl)CCl (stereo not given),2.25 µM (inactive),6.38 µM (inactive),2.74 µM (inactive),1.95 µM (inactive),0.607 µM (active),1.61 µM (inactive),4.18 µM (inactive),2.13 µM (inactive),> 10 µM (inactive),0.1 µM (active),2.41 µM (inactive),2.11 µM (inactive),2.06 µM (inactive),2.33 µM (inactive),3.36 µM (inactive),1.82 µM (inactive),2.02 µM (inactive),> 10 µM (inactive),6.15 µM (inactive),1.64 µM (inactive)
COn1cc(CO)c2ccccc21,> 88.7 µM (inactive),> 100 µM (inactive),> 100 µM (inactive),33.1 µM (inactive),51.4 µM (inactive),> 100 µM (inactive),5.96 µM (inactive),25.2 µM (inactive),53.1 µM (inactive),1.82 µM (inactive),3.37 µM (inactive),> 100 µM (inactive),> 58.5 µM (inactive),> 75.2 µM (inactive),> 100 µM (inactive),45.3 µM (inactive),> 100 µM (inactive),> 62.1 µM (inactive),> 100 µM (inactive),66.5 µM (inactive)
N#Cc1c(-c2ccccc2)cc(-c2ccccc2)n(C2OCC(O)C(O)C2O)c1=S (stereo not given),23.4 µM (inactive),15.4 µM (inactive),24.9 µM (inactive),19 µM (inactive),20.1 µM (inactive),18.1 µM (inactive),27.9 µM (inactive),33.3 µM (inactive),19.7 µM (inactive),19.7 µM (inactive),32.5 µM (inactive),26.6 µM (inactive),23 µM (inactive),14.6 µM (inactive),11.7 µM (inactive),14.7 µM (inactive),12.9 µM (inactive),22.8 µM (inactive),26.6 µM (inactive),10.4 µM (inactive)
NCCSc1nc2ccccc2s1,32.5 µM (inactive),36.1 µM (inactive),22.8 µM (inactive),43.8 µM (inactive),> 100 µM (inactive),30.7 µM (inactive),24.9 µM (inactive),47 µM (inactive),33.9 µM (inactive),32.9 µM (inactive),38.5 µM (inactive),> 100 µM (inactive),34 µM (inactive),44 µM (inactive),32.1 µM (inactive),33.7 µM (inactive),45.1 µM (inactive),48.3 µM (inactive),64.7 µM (inactive),31.9 µM (inactive)
O=C(/C=C1\C[C@H]2C=Nc3ccccc3C(=O)N2C1)NCCCCCNC(=O)/C=C1\C[C@H]2C=Nc3ccccc3C(=O)N2C1,6.49 µM (inactive),18.3 µM (inactive),13.6 µM (inactive),1.94 µM (inactive),0.532 µM (active),1.98 µM (inactive),4.32 µM (inactive),4.36 µM (inactive),13.5 µM (inactive),19.1 µM (inactive),2.6 µM (inactive),12.1 µM (inactive),11.6 µM (inactive),13.8 µM (inactive),16.2 µM (inactive),6.14 µM (inactive),17.7 µM (inactive),22.9 µM (inactive),16.1 µM (inactive),4.28 µM (inactive)
O=c1[nH]c(Nc2ccc(Br)c(C(F)(F)F)c2)nc2[nH]cnc12,28.5 µM (inactive),45.2 µM (inactive),25.6 µM (inactive),43.9 µM (inactive),20.8 µM (inactive),39.1 µM (inactive),83.9 µM (inactive),82 µM (inactive),55 µM (inactive),33.4 µM (inactive),50 µM (inactive),36.6 µM (inactive),27.6 µM (inactive),37.7 µM (inactive),45.1 µM (inactive),48.4 µM (inactive),29 µM (inactive),72.1 µM (inactive),39.6 µM (inactive),47.3 µM (inactive)
C/C(=N\N=C(/S)N(C)C)c1cccnn1,0.65 µM (active),0.394 µM (active),2.03 µM (inactive),0.564 µM (active),0.468 µM (active),0.495 µM (active),4.05 µM (inactive),0.438 µM (active),0.889 µM (active),1.22 µM (inactive),0.853 µM (active),1.29 µM (inactive),0.569 µM (active),0.385 µM (active),1.26 µM (inactive),0.369 µM (active),2.48 µM (inactive),0.832 µM (active),1.46 µM (inactive),0.466 µM (active)
CCN(CC)C(=S)SS(=O)(=O)c1ccc(NC(C)=O)cc1,28.9 µM (inactive),26.2 µM (inactive),25.4 µM (inactive),19.5 µM (inactive),25.6 µM (inactive),15.9 µM (inactive),32.6 µM (inactive),21.8 µM (inactive),22.6 µM (inactive),> 55.6 µM (inactive),18.8 µM (inactive),17.3 µM (inactive),24.8 µM (inactive),27.1 µM (inactive),40.5 µM (inactive),16 µM (inactive),55.8 µM (inactive),2.21 µM (inactive),38.1 µM (inactive),18.5 µM (inactive)

# From ChEMBL document CHEMBL1201862, “PubChem BioAssay data set” (2004)
